US20050014160A1, “Assays for protease enzyme activity” (priority 2003, published 2005)
Square brackets hold non-standard residues; d marks the D form. Ends that are not written are not given here. Sta = CC(C)C[C@H](N)[C@@H](O)CC(=O)O

How the values were obtained:
β-secretase [1] = molecular target: T1, β-secretase (Homo sapiens, UniProt P56817); experiment: QTL/QTP assay for β-secretase activity with quencher-tether-biotin peptide substrates; format: biochemical
Protocol: In a 384-well plate, […] of β-secretase peptide substrate solution of appropriate concentration was mixed with a given amount of β-secretase enzyme in a total volume of […] in assay buffer. In the same plate, a control experiment was also set up where the same amount of peptide was taken in assay buffer but no enzyme was added. The experiments were usually done in triplicate sets for both sample and control. After a given time period of incubation at CRT, the fluorescent polymer in polymer buffer was added to the sample and control wells. The well plate was shaken inside the plate reader and the fluorescence intensity of the samples was measured. The difference in relative fluorescence units between sample and control wells is a measure of enzyme activity.
In the above example, the polymer can include any of the following: • A. Biotin binding protein (BBP) functionalized polystyrene latex carboxylic acid microspheres that are coated with conjugated polymer 1; • B. Solution complex of BBP and biotinylated polymer 2; • C. Microspheres as in A that are doped with a small amount of Phycoerythrin or related fluorescent protein conjugated to biotin; • D. Solution Sensor as in B doped with a small amount of Phycoerythrin or related fluorescent protein conjugated to biotin; and • E. Covalent conjugate of Phycoetythrin or another fluorescent protein and BBP. […]
The assay performance was further improved when the polymer microsphere sample A was doped with a small amount of Biotin-R-Phycoerythrin (Biotin-R-PE) conjugate. In one experiment, BSEC-1, BSEC-3 (a,b) (same peptide substrate synthesized by different vendors) and BSEC-4 were all exposed to β-secretase enzyme under identical conditions to compare their efficiencies in the assay. Polymer sample C was prepared fresh just before the start of experiment by mixing together Polymer A and Biotin-R-PE in a ratio designed to provide 5×10^6 microspheres doped with 100 fmol of Biotin-R-PE per well in a volume of 10 μL.
To 5 μL of a 300 nM solution of each peptide substrate in assay buffer in separate wells was added 10 ng of β-secretase enzyme in 5 μL of assay buffer to start the reactions. Each reaction was performed in triplicate. Controls were performed for each peptide without enzyme in quadruplicate. The samples were incubated at CRT for 60 minutes. At the end of the incubation period, the Biotin-R-PE doped polymer C was added to each well. The plate was shaken in the plate reader for 60 seconds, then probed for emission at 576 nm by exciting at 440 nm and using 475 nm cut-off filter. BSEC-1 gave RFU values of 6270±196 for control and 9645±152 for sample. BSEC-3a gave RFUs of 7656±20 for control and 15022±743 for sample while BSEC-3b gave RFUs of 6054±41 and 12265±913 for control and sample respectively. In comparison, BSEC-4 gave values of 9207±364 and 9732±319 for control and sample respectively.
The polymer solution sensor B was prepared by mixing together 56.5 nmol of Avidin (Biotin binding protein, BBP) and 848 nmol of biotinylated PPE polymer 2 in a total volume of 11.3 μL and incubating at CRT for 24 hours. The polymer and the BBP combine with each other through the biotin-avidin interaction to form stable entities. The solution sensor thus prepared was diluted appropriately with polymer buffer at the beginning of each experiment.
To 5 μL of a 400 nM solution of BSEC-1 in assay buffer in a 384 well plate was added 30 ng of β-secretase dissolved in 5 μL of assay buffer. The mixture was made in triplicate and incubated for 30 minutes at CRT. The control wells contained only peptide and no enzyme. After incubation, a 100-fold dilution of the above solution sensor was added at 20 μL to each well. The plate was shaken inside the microplate reader and the wells were probed by exciting the polymer at 440 nm and measuring emission intensity at 530 run. The control wells gave an average RFU value of 5400±200 and the sample wells containing enzyme gave RFU of 8350±200. […]

β-secretase [2] = molecular target: T1, β-secretase; experiment: QTL assay for inhibition of β-secretase activity by a known inhibitor; format: biochemical; conditions: for delta-over-control RFU: BSEC-1 substrate, 30 ng β-secretase, 15 minutes, Polymer A, without inhibitor 4468±85
Excerpt: In another embodiment, the QTL assay is capable of detecting the inhibition of β-secretase activity in unknown samples. Whereas, in the absence of any inhibitory substance in the reaction mixture, the enzyme would cleave a large portion of the reactive tether present, in the presence of an effective inhibitor, the enzyme loses most of its activity. The QTL assay provides evidence of partial or total inhibition of enzyme activity through a lowering or complete lack of “fluorescence recovery” in such samples.
The structure of the statine-derived peptide inhibitor of β-secretase is given below:
STA-200 is a well-known inhibitor of β-secretase activity. To 2.5 μL of an 800 nM solution of BSEC-1 in assay buffer was added 30 ng of β-secretase and the volume made up to a total of 10 μL with assay buffer. In another well, 2.5 μL of 800 nM BSEC-1 solution was incubated with a pre-mixed solution of 2.5 μL of STA-200 solution and 30 ng of β-secretase so that the final volume is again 10 μL. Two control reactions were also set up in separate wells where one had only peptide in assay buffer while the other had peptide and inhibitor incubating in assay buffer. All samples were incubated at CRT for 15 minutes followed by the addition to each of 19.2 μL of Polymer A suspension (1×10^7 microspheres) in polymer buffer. The mixtures were then probed for emission at 530 nm by exciting them at 440 nm and using 475 nm cut-off filter. The mixture of peptide and enzyme alone gave a delta-over-control RFU of 4468±85. In comparison, a mixture of peptide, enzyme and 60 nM STA-200 (600 fmol) gave a delta-over-control RFU of 2746±241 while a mixture containing 250 nM STA-200 (2.5 pmol) gave a corresponding value of only 865±178.

[3] = molecular target: Streptavidin-B-Phycoerythrin conjugate (SAv-BPE) (Streptomyces avidinii, UniProt P22629); experiment: Superquenching of fluorescent conjugate by β-secretase peptide substrate (Stern-Volmer); conditions: 2.5 nM solution of the fluorescent conjugate SAv-BPE
Chain of Streptavidin-B-Phycoerythrin conjugate (SAv-BPE) (P22629 25-183): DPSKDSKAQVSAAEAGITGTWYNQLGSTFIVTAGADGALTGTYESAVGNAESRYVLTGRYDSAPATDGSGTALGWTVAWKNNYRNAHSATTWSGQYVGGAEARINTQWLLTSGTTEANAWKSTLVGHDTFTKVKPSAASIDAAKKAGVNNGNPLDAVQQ
Chain of Streptavidin-B-Phycoerythrin conjugate (SAv-BPE) (P11392 whole entry partner): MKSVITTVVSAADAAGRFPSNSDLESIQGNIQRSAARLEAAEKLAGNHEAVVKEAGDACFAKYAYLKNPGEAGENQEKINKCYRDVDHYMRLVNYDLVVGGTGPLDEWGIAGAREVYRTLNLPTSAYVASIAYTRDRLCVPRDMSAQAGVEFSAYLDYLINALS
Chain of Streptavidin-B-Phycoerythrin conjugate (SAv-BPE) (P11393 whole entry partner): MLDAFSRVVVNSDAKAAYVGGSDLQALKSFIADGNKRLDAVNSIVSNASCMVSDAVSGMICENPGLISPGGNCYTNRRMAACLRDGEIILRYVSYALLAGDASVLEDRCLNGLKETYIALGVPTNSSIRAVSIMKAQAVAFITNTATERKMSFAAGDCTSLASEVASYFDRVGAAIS
Excerpt: In another embodiment of the invention, the fluorescent polymer is a biological ensemble comprising phycoerythrin or phycobilisome.

Caspase-3 enzyme = Caspase-3 enzyme (Homo sapiens, UniProt P42574); conditions: Example 10, peptide substrate with Caspase-3 at CRT; control without enzyme remains unchanged
Chain of Caspase-3 enzyme (P42574 29-175 limits assumed, species assumed): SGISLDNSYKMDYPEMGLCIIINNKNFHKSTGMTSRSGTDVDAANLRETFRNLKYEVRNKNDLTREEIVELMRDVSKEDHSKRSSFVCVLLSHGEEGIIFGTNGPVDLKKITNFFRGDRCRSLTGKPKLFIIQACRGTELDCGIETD
Chain of Caspase-3 enzyme (P42574 176-277 limits assumed, species assumed): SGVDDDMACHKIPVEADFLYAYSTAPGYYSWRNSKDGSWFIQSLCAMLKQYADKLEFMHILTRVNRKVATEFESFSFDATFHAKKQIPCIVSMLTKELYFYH
Protocol: To a known amount of the peptide substrate represented by SEQ ID NO:8 in assay buffer is added a sample solution of Caspase-3 enzyme in one well of a 384-well plate. In another well, the peptide substrate is taken without enzyme. The plate is incubated at CRT and the sample and control wells measured for fluorescence intensity at various time periods. […] An assay of this type is represented in FIG. 3.

[4] = Example 7: 300 nM substrate, 20 ng β-secretase, 30 minutes, SAv-BPE (Polymer E), ex 490 nm/em 576 nm
[5] = Example 7: 300 nM substrate, no enzyme, 30 minutes, SAv-BPE (Polymer E), ex 490 nm/em 576 nm
[6] = Example 3: 300 nM substrate, 10 ng β-secretase, 60 minutes at CRT, Biotin-R-PE doped polymer C, ex 440 nm/em 576 nm
[7] = Example 3: 300 nM substrate, no enzyme, 60 minutes at CRT, Biotin-R-PE doped polymer C, ex 440 nm/em 576 nm

T1 sequence (P56817 46-501): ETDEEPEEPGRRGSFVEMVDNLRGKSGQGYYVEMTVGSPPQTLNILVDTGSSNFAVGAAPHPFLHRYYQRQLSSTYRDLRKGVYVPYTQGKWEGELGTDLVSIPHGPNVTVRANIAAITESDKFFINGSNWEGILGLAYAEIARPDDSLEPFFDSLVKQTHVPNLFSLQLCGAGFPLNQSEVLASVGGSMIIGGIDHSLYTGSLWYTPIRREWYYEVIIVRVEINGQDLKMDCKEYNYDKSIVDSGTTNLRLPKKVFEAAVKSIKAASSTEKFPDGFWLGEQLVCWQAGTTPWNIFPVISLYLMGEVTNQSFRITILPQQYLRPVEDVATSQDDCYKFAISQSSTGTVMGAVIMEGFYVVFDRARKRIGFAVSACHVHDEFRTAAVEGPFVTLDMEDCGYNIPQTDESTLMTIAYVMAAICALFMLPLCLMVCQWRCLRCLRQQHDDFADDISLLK

(AZO)-TEEISEVNLDAEFK-(Nε-Biotin) [BSEC-3]
RFU of sample (β-secretase [1]; Example 2: 400 nM substrate, 60 ng β-secretase, ten minutes at CRT, polymer A, ex 440 nm/em 530 nm): 10996±424 RFU
RFU of control (β-secretase [1]; Example 2: 400 nM substrate, no enzyme, ten minutes at CRT, polymer A, ex 440 nm/em 530 nm): 8111±707 RFU
RFU of sample (β-secretase [1]; Example 3: 300 nM substrate, 10 ng β-secretase, 60 minutes at CRT, Biotin-R-PE doped polymer C, ex 440 nm/em 576 nm, listed as BSEC-3a): 15022±743 RFU
RFU of sample (β-secretase [1]; Example 3: 300 nM substrate, 10 ng β-secretase, 60 minutes at CRT, Biotin-R-PE doped polymer C, ex 440 nm/em 576 nm, listed as BSEC-3b): 12265±913 RFU
RFU of control (β-secretase [1]; Example 3: 300 nM substrate, no enzyme, 60 minutes at CRT, Biotin-R-PE doped polymer C, ex 440 nm/em 576 nm, listed as BSEC-3a): 7656±20 RFU
RFU of control (β-secretase [1]; Example 3: 300 nM substrate, no enzyme, 60 minutes at CRT, Biotin-R-PE doped polymer C, ex 440 nm/em 576 nm, listed as BSEC-3b): 6054±41 RFU
average RFU of sample wells (β-secretase [1]; Example 6: 300 nM substrate, 30 ng β-secretase, 30 minutes at CRT, doped solution sensor D, ex 440 nm/em 576 nm): 14500±200 RFU
average RFU of control wells (β-secretase [1]; Example 6: 300 nM substrate, no enzyme, 30 minutes at CRT, doped solution sensor D, ex 440 nm/em 576 nm): 5200±100 RFU
average RFU of enzyme wells (β-secretase [1]; [4]): 18032±228 RFU
average RFU of control wells (β-secretase [1]; [5]): 11639±335 RFU

KTEISEVN-(Sta)-VAEF-OH (KTEISEVN[Sta]VAEF-OH; N-terminus assumed; SMILES CC[C@H](C)[C@H](NC(=O)[C@H](CCC(=O)O)NC(=O)[C@@H](NC(=O)[C@@H](N)CCCCN)[C@@H](C)O)C(=O)N[C@@H](CO)C(=O)N[C@@H](CCC(=O)O)C(=O)N[C@H](C(=O)N[C@@H](CC(N)=O)C(=O)N[C@@H](CC(C)C)[C@@H](O)CC(=O)N[C@H](C(=O)N[C@@H](C)C(=O)N[C@@H](CCC(=O)O)C(=O)N[C@@H](Cc1ccccc1)C(=O)O)C(C)C)C(C)C) [STA-200]
delta-over-control RFU (β-secretase [2]; 60 nM STA-200 (600 fmol)): 2746±241 RFU
delta-over-control RFU (β-secretase [2]; 250 nM STA-200 (2.5 pmol)): 865±178 RFU
IC50 value (β-secretase [2]; sample incubated for fifteen minutes): in the range of nanomolar concentrations

(QSY-7)-TEEISEVNLDAEFK-(Nε-Biotin) [BSEC-1]
relative fluorescence units (RFU) of sample (β-secretase [1]; Example 1: 400 nM substrate, 20 ng β-secretase, 30 min at CRT, polymer A, ex 420 nm/em 530 nm): 9045±109 RFU
relative fluorescence units (RFU) of control (β-secretase [1]; Example 1: 400 nM substrate, no enzyme, 30 min at CRT, polymer A, ex 420 nm/em 530 nm): 5529±286 RFU
RFU of sample (β-secretase [1]; [6]): 9645±152 RFU
RFU of control (β-secretase [1]; [7]): 6270±196 RFU
RFU of sample wells containing enzyme (β-secretase [1]; Example 5: 400 nM substrate, 30 ng β-secretase, 30 minutes at CRT, solution sensor polymer B, ex 440 nm/em 530 nm): 8350±200 RFU
average RFU of control wells (β-secretase [1]; Example 5: 400 nM substrate, no enzyme, 30 minutes at CRT, solution sensor polymer B, ex 440 nm/em 530 nm): 5400±200 RFU
average RFU of enzyme wells (β-secretase [1]; [4]): 11828±556 RFU
average RFU of control wells (β-secretase [1]; [5]): 7671±286 RFU
delta-over-control RFU, peptide and enzyme alone (β-secretase [1]; Example 8: 2.5 μL of 800 nM substrate, 30 ng β-secretase, no inhibitor, 15 minutes at CRT, Polymer A, ex 440 nm/em 530 nm): 4468±85 RFU
Stem-Volmer quenching constant [3]: ~1e+08 M⁻¹

D-E-V-D-Cyanine [SEQ ID NO:8]
fluorescence intensity of sample with increasing time (Caspase-3 enzyme): increase in fluorescence

(AZO)-TKKISEVNLDAEFRK-(Nε-Biotin) [BSEC-4]
RFU of sample (β-secretase [1]; [6]): 9732±319 RFU
RFU of control (β-secretase [1]; [7]): 9207±364 RFU
